Laboratory results as given in article PMC12362615, “Design, Synthesis, and Cellular Characterization of a New Class of IPMK Kinase Inhibitors” (Journal of Medicinal Chemistry, 2025).
Read-outs that look alike come from different tables or passages of the source.

Tests used:
[1] = tested on: human U251-MG glioblastoma cells; test: CyQuant cell count / proliferation assay; format: cell-based; conditions: 48 h
Protocol: 1 Compound 1 inhibits human U251 glioblastoma cell growth and labeled inositol phosphate levels. (A) Schematic of inositol phosphate metabolism. (B) Chemical structure of compound 1, indicating moiety A (blue highlight), the core (gray highlight), and moiety B (red highlight), and the IC50 value as determined by the kinase-GLO assay. (C) CyQuant cell count assay of 10,000 human U251-MG glioblastoma cells seeded per well, treated for 48 h with DMSO vehicle or 400 nM compound 1 (n = 8, ***p = 0.0046, unpaired t test). (D) HPLC analysis of ^3H-inositol phosphates from U251-MG cells treated with 400 nM compound 1 (red bars) or DMSO (blue bars) and metabolically labeled with ^3H-inositol for 48 h, expressed as the percentage of the inositol peak from the HPLC for InsP3, InsP4, InsP5, and InsP6, as indicated, *p < 0.05 by unpaired t test Bonferroni corrected for multiple comparisons. (E) Same data as in (D) replotted with a nonzero y-axis to facilitate visualizing differences between DMSO vs. compound treatment for each indicated inositol phosphate species, *p < 0.05 by unpaired t test Bonferroni corrected for multiple comparisons.
Error represents the standard error from 3 independent assays. (B) CyQuant cellular proliferation assay of 10,000 human U251-MG glioblastoma cells seeded per well, treated for 48 h with DMSO vehicle or 10 μM 14 (n = 8, ****p adj < 0.0001 by one-way ANOVA, Dunnett’s corrected; *p < 0.05 by unpaired t test). (C) HPLC analysis of ^3H-inositol phosphates from U251-MG cells treated with 10 μM compound 14 (red bars) or DMSO (blue bars) and metabolically labeled with ^3H-inositol for 48 h, expressed as a percentage of all the peaks detectable from the HPLC, *p < 0.05, **p < 0.01, ***p < 0.001 by unpaired t test compared to DMSO-treated control for all remaining panels, n = 3. (D) Same as (C) but expressed as a percentage of the inositol HPLC peak, n = 3. (E) Same as C but expressed as a percentage of all the inositol phosphate peaks combined from the HPLC, n = 3.

[2] = tested on: purified recombinant human IPMK kinase domain; test: IPMK IC50 determination, Kinase-Glo assay; format: biochemical
Text: (§1) These assay conditions were optimized with respect to reaction time, IPMK enzyme concentration, and IP3 concentration to determine the IC50 values for these ATP-competitive compounds.

[3] = target: T1, purified recombinant human IPMK kinase domain (Homo sapiens, UniProt Q8NFU5); test: IPMK IC50 determination, Kinase-Glo assay; format: biochemical
T1 sequence (Q8NFU5 with tags, fused parts or gaps): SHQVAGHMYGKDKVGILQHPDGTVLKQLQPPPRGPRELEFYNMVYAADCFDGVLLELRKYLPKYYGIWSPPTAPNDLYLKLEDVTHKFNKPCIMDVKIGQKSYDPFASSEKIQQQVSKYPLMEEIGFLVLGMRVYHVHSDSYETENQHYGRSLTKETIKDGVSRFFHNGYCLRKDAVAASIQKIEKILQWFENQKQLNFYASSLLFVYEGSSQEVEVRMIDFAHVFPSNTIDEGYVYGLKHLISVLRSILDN
Text: as §1

Question: Which cell growth ([1]; 1.0 μM) does the source give for `c1cc(-c2onc3ccc(-c4nnn[nH]4)cc23)cc(C2CCN(C3CCC3)CC2)c1` [Compound 14, 3-(3-(1-Cyclobutylpiperidin-4-yl)phenyl)-5-(1H-tetrazol-5-yl)benzo[c]isoxazole] here?
Answer: decreased cell growth

Question: What about the “cell growth, CyQuant cellular proliferation assay” value ([1]; 10 μM, vs DMSO) of the same molecule?
Answer: inhibits cell growth

Question: What about the “concentration of maximum IPMK inhibition” value [2] of the same molecule?
Answer: 100 nM

Question: What about the IC50 ([3]; Kinase-Glo assay, 12.5 μM Ins(1,4,5)P3, 10 μM ATP, read-out: IC50 toward recombinant human IPMK) of the same molecule?
Answer: 32 ± 2.4 nM

Question: And the IC50 ([3]; supplementary csv, read-out: IPMK IC50)?
Answer: 31.6 ± 2.4 nM
